Assay results published in US4997835A, “Substituted 2-acylpyridine-α-(N)-hetarlyhydrazones and medicaments containing the same” (priority 1987, dated 1991).
pIC50: −log10 of the molar value. ≈ marks a conversion by molar mass, not a printed value. Like-named read-outs stand apart in the source and are kept apart here.

Tests used:
[1] = tested on: Indochina W-2 (parasitic malaria strain); assay: Growth of malaria strain Indochina W-2; assay type: cell-based; conditions: for pIC50: read-out: I50; for IC90: read-out: I90
Source text: (§1) Determination of the semimaximum inhibiting concentration (I50) of typical representatives of the inventive compounds for the growth of parasitic malaria strains:
(§2) The determination took place according to the standard process (cf. WHO determination process).
(§3) The process according to Example 35 was repeated with the difference that the semimaximum inhibiting concentration of combinations of the inventive compound PH 22 with (2), (3) inhibitors of dihydrofolic acid reductase, (4) inhibitors of folate synthase and dihydrofolic acid reductase and (5), (6) inhibitors of DNA-synthesis were determined.

[2] = tested on: Sierra Leone D-6 (parasitic malaria strain); assay: Growth of malaria strain Sierra Leone D-6; assay type: cell-based; conditions: for pIC50: read-out: I50; for IC90: read-out: I90
Source text: as §1, §2, §3

[3] = tested on: human mammary tumour cell line MDA-MB231; assay: Inhibition of cellnumber increase; assay type: cell-based; conditions: MDA-MB-231, read-out: 50% Inhibition of cellnumber increase, I50
Description: (§4) The semimaximum inhibition of cellnumber increase and thymidine incorporation into DNA was determined on the […], human mammary tumour cell line MDA-MB231 (cf. H. D. Soule et al, J. Nat. Cancer Inst., 51, p.1409, 1973) according to the method described by H. Seidenberger, G. Kranzfelder, S. Wappes, H. Schonenberger, W. Beck and M. Girth, Arch. Pharm. 314, 955, 1981 and M. Lippman, M. E. Monaco and G. Bolan, Cancer Res. 37, 1901, 1977.

[4] = tested on: human mammary tumour cell line MDA-MB231; assay: Inhibition of thymidine incorporation into DNA; assay type: cell-based; conditions: MDA-MB-231, read-out: 50% Inhibition of thymidine incorporation
Description: as §4

Mycobacterium lufu = assay: Minimum inhibiting concentration, M. lufu L 209; assay type: cell-based; conditions: for MIC: Mycobacterium lufu
[5] = tested on: Mycobacterium tuberculosis H 37 RV; assay: Minimum inhibiting concentration, M. tuberculosis H37RV; assay type: cell-based; conditions: M. tub. H37RV; for MIC: Mycobacterium tuberculosis
Description: The minimum inhibiting concentration of the commercially available and inventive substances given in Table 2 was determined according to the known standard process ("Methods for sensitivity testing of bacterial infectious germs", DIN 58940, part 5).
The determination was carried out on the following bacterial cultures:
2. Mycobacterium tuberculosis H 37 RV, FIB 2-85 JS
For culturing the bacterial cultures use was made of nutrient substrates according to Gottsacker and Lowenstein Jensen and culture media according to Lockemann or Dubos-Davis (cf. "Detection processes for mycobacteria from test material, III, culture medium formulations for culturing tuberculosis bacteria", 1978, Publisher: Deutsches Zentralkomitee zur Bekampfung der Tuberculose, Poppenhusenstrasse 14c, 2000 Hamburg 60).
In each case 5×10^-3 to 5×10^-5 mg, based on the wet weight, of the mycobacterial strains were incubated in 2 ml of culture fluid (Lockemann +0.5 wt/vol. % bovine serum albumen fraction 5) at 31° C. with a graded concentration of the particular inhibitor (dilution series). The culture tubes were read off after 8 to 15 days, as a function of the bacterial strain.
The MIC is the inhibitor concentration in μMol/l at which no propagation of the sewn cells is observed.

[6] = tested on: Mycobacterium smegmatis ATCC 607; assay: Minimum inhibiting concentration, M. smegmatis ATCC 607; assay type: cell-based; conditions: for MIC: Mycolicibacterium smegmatis
[7] = tested on: Mycobacterium avium Patient Strain (Birk); assay: Minimum inhibiting concentration, M. avium Patient Strain (Birk); assay type: cell-based; conditions: M. avium Patient str.; for MIC: Mycobacterium avium, read-out: Minimum inhibiting concentration
lymphatic leukaemia P388 = conditions: C. Pellerano et al, Il Farmaco 1985; cited from earlier work
in vivo = conditions: rat, sc
Description: (§5) The acute toxicity after a single administration of PH 22, pyridine-2-aldehyde-thiosemicarbazone (Py-2-TSC), as well as Conteben (thiacetazone, 4-acetylaminobenzaldehyde-thiosemicarbazone) was determined according to H. J. Hapke, Toxikologie fur Veterinarmediziner, F. Enke Verlag, Stuttgart 1975. The test animals used were Wistar rats and NMRI white mice.

[8] = tested on: Mycobacterium marinum SN 1254; assay: Minimum inhibiting concentration, M. marinum SN1254; assay type: cell-based
[9] = tested on: Mycobacterium avium SN 304; assay: Minimum inhibiting concentration, M. avium SN 304; assay type: cell-based; conditions: SN304, M. avium SN 304, read-out: Minimum inhibiting concentration
[10] = mouse, in vivo
Description: as §5

M. leprae [11] = assay: In vitro propagation of M. leprae, thymidine incorporation; assay type: cell-based; conditions: Mycobacterium leprae, read-out: % Reduction Thymidine incorporation; for inhibition of growth at 50000 µg/mL: 50 mg/ml; for inhibition of growth at 100000 µg/mL: 100 mg/ml
Description: The inhibiting action was determined as a reaction of the thymidine absorption and the ATP content in M. Leprae suspensions, in the manner described by A. M. Dhople, Med. Sci. Res., 15, p.

M. leprae [12] = assay: Propagation of M. leprae in mouse paws; assay type: in vivo
Description: The therapeutic action was determined as a reduction of the number of acid-resistant bacteria in the mouse paw according to C. C. Shepard, J. Experim. Met., 112, p. 445, 1960.
It is possible to detect the synergistic effect of the combinations, even under in vivo conditions.

[13] = M. marin. SN1254, read-out: Minimum inhibiting concentration
[14] = ATCC607, M. smegm. ATCC 607, read-out: Minimum inhibiting concentration
[15] = read-out: IC50 in the case of combinations
[16] = two months in feed, DDS 0.0001%, Rifampicin 0.001%, K-130 0.01%, Brodimoprim 0.01%, PH 22-26 0.05%

SMILES	pIC50 [1]	IC90 [1] [nM]	pIC50 [2]	IC90 [2] [nM]	pIC50 [3]	pIC50 [4]	MIC (Mycobacterium lufu) [µM]	MIC [5] [µM]	MIC [8, 13] [µM]	MIC [6, 14] [µM]	MIC [7] [µM]	also measured
NC(=NNc1ccccn1)c1ccccn1 [PH 22-12, pyridine-2-carboxylic acid 2'-pyridyl-amidrazone]	5.20	41000	5.82	4300	6.34	6.48	–	–	–	–	–	–
CC(=NN(c1ccccn1)c1ccc2ccccc2n1)c1ccccn1 [PH 22-4, 2-acetylpyridine-2'-pyridyl-2'-quinolylhydrazone]	–	–	–	–	–	–	–	–	–	–	–	Minimum inhibiting concentration (Mycobacterium lufu): 6,7 μM/1; Minimum inhibiting concentration [5]: 4,8 μM/1; Minimum inhibiting concentration ([6]; M. smegm. ATCC 607): 15 μM/1; Minimum inhibiting concentration [7]: 58 μM/1; in vivo treatment of lymphatic leukaemia P388 (lymphatic leukaemia P388): ineffective
C(=NNc1ccccn1)c1ccccn1 [PH 22, pyridine-2-aldehyde-2'-pyridylhydrazone]	5.70	2500	6.52	1300	6.82	6.93	32 (≈ 6.34 µg/mL)	97 (≈ 19.2 µg/mL)	77 (≈ 15.3 µg/mL)	20 (≈ 3.96 µg/mL)	29 (≈ 5.75 µg/mL)	LD50 (in vivo): > 2000 mg/kg; MIC [9]: 30 µM (≈ 5.95 µg/mL); IC50 [1, 15]: 0.39 µg/mL; IC50 [2, 15]: 0.0556 µg/mL
Cc1ccnc(C=NNc2ccccn2)c1 [PH 22-7, 4-methyl-pyridine-2-aldehyde-2'-pyridylhydrazone]	–	–	–	–	6.56	6.80	57 (≈ 12.1 µg/mL)	113 (≈ 24 µg/mL)	–	–	–	MIC ([8]; SN1254, read-out: Minimum inhibiting concentration): 113 µM (≈ 24 µg/mL); MIC ([6]; ATCC607, read-out: Minimum inhibiting concentration): 113 µM (≈ 24 µg/mL)
CCC(=NNc1nncc2ccccc12)c1ccccn1 [PH 22-25, ethyl-2-pyridylketone-1'-phthalazinylhydrazine]	6.40	700	6.52	450	6.71	6.98	2.7 (≈ 0.749 µg/mL)	36 (≈ 9.98 µg/mL)	101 (≈ 28 µg/mL)	10.8 (≈ 3 µg/mL)	–	–
Clc1cc(NN=Cc2ccccn2)ncn1 [PH 22-26, pyridine-2-aldehyde-6'-chloro-4'-pyrimidylhydrazone]	5.46	6200	5.70	3000	–	–	1.3 (≈ 0.304 µg/mL)	6.2 (≈ 1.45 µg/mL)	12.9 (≈ 3.01 µg/mL)	25.7 (≈ 6.01 µg/mL)	–	toxic effects [10]: No toxic effects were observed; inhibition of growth at 50000 µg/mL (M. leprae [11]): 30%; inhibition of growth at 100000 µg/mL (M. leprae [11]): 48%; % Inhibition of propagation of M. leprae in mouse paws (M. leprae [12]; 0.1% in feed, 4 months): 40%; M. leprae/paw, treated mice (M. leprae [12]; 0.1% in feed, 4 months (control 0.468)): 0.283 × 10^6; % Inhibition of propagation of M. leprae in mouse paws (M. leprae [12]; 0.1% in feed, 6.5 months): 69%; % Inhibition of propagation of M. leprae in mouse paws (M. leprae [12]; 0.1% in feed, 8.5 months): 77%; M. leprae/paw, treated mice (M. leprae [12]; 0.1% in feed, 8.5 months (control 2.978)): 0.684 × 10^6; % Inhibition of propagation of M. leprae in mouse paws (M. leprae [12]; 0.1% in feed, 12 months): 74%; M. leprae/paw, treated mice (M. leprae [12]; 0.1% in feed, 12 months (control 3.682)): 0.945 × 10^6; % Inhibition of propagation of M. leprae in mouse paws (M. leprae [12]; [16]): 0%
c1ccc(C(=NNc2ccccn2)c2ccccn2)cc1 [PH 22-9, 2-benzoyl pyridine-2'-pyridylhydrazone]	5.82	5300	5.74	2200	7.01	7.05	5.5 (≈ 1.51 µg/mL)	13 (≈ 3.57 µg/mL)	18.3 (≈ 5.02 µg/mL)	36.5 (≈ 10 µg/mL)	73 (≈ 20 µg/mL)	in vivo treatment of lymphatic leukaemia P388 (lymphatic leukaemia P388): ineffective
CO[C@H]1/C=C/O[C@@]2(C)Oc3c(C)c(O)c4c(O)c(c(/C=N/N5CCN(C)CC5)c(O)c4c3C2=O)NC(=O)/C(C)=C\C=C\[C@H](C)[C@H](O)[C@@H](C)[C@@H](O)[C@@H](C)[C@H](OC(C)=O)[C@@H]1C [Rifampicin]	–	–	–	–	–	–	–	–	–	–	5 (≈ 4.11 µg/mL)	MIC [9]: 39 µM (≈ 32.1 µg/mL); inhibition of growth at 50000 µg/mL (M. leprae [11]): 2%; inhibition of growth at 100000 µg/mL (M. leprae [11]): 0%; % Inhibition of propagation of M. leprae in mouse paws (M. leprae [12]; [16]): 19%
